Consider 18 molecules from patent publication US9023855B2, “Compounds” (Chiesi Farmaceutici S.p.A., priority 2011, dated 2015).

For this assay, the target named is T1, human neutrophil elastase (HNE) (Homo sapiens, UniProt P08246).
T1 construct: purchased Sigma E8140
T1 sequence (P08246 30-267): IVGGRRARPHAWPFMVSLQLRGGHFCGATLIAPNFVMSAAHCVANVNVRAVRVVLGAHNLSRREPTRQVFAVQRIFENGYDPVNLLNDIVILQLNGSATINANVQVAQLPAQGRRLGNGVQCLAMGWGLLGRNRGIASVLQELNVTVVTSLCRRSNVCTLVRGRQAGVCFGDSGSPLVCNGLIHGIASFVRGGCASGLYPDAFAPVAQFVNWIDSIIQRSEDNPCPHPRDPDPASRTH
Briefly: HNE enzyme assay (fluorogenic peptide substrate MeOSuc-Ala-Ala-Pro-Val-AMC). The assay is classed as biochemical. The settings on record: human leukocyte elastase, substrate 100 μM, 25° C., 30 minutes, at least two separate experiments; read-out: HNE inhibition (IC50 values). The protocol:
Compounds of this invention were tested for potency in a human neutrophil elastase (HNE) enzyme activity assay.
Assays were performed in 96-well plates in a total assay volume of 100 μl. The final concentration of elastase enzyme (human leukocyte elastase, Sigma E8140) was 0.0036 units/well […]. The peptide substrate (MeOSuc-Ala-Ala-Pro-Val-AMC, Calbiochem #324740) was used at a final concentration of 100 μM. The final concentration of DMSO was 1% in the assay buffer (0.05M Tris.HCl, 0.1M NaCl, 0.1M CaCl2, 0.0005% brij-35, pH 7.5). The enzymatic reaction was started by addition of the enzyme and incubated at 25° C. for 30 minutes. After incubation, the reaction was stopped by addition of soybean trypsin inhibitor (Sigma T9003) at a final concentration of 50 μg/well. Fluorescence was measured using a Molecular Devices fluorescence plate reader using 380 nm excitation and 460 nm emission wavelengths.
A dose response to each compound was performed, and the effect of the compound in each experiment was expressed as a percentage inhibition of the control enzyme fluorescence. Dose response curves were plotted and compound potency (IC50) was determined. Compounds were tested in at least two separate experiments.
Usually IC50 stands for the concentration that gives 50% inhibition. For `COC(=O)C1=C(C)N(c2cccc(C(F)(F)F)c2)c2n[nH]c(=O)n2C1c1ccc(C#N)cc1` (stereo not drawn) [Example 1, 5-(4-Cyanophenyl)-7-methyl-3-oxo-8-(3-trifluoromethylphenyl)-2,3,5,8-tetrahydro-[1,2,4]triazolo[4,3-a]pyrimidine-6-carboxylic acid methyl ester], the IC50 is below 20 nM.

Consider `COC(=O)C1=C(C)N(c2cccc(C(F)(F)F)c2)c2nn(CC(N)=O)c(=O)n2C1c1ccc(C#N)cc1` (stereo not drawn) [Example 2, 2-Carbamoylmethyl-5-(4-cyanophenyl)-7-methyl-3-oxo-8-(3-trifluoromethylphenyl)-2,3,5,8-tetrahydro-[1,2,4]triazolo[4,3-a]pyrimidine-6-carboxylic acid methyl ester], for which the 50% inhibitory concentration (IC50) is below 20 nM.

For the molecule `COC(=O)C1=C(C)N(c2cccc(C(F)(F)F)c2)c2nn(CCCN(C)C)c(=O)n2C1c1ccc(C#N)cc1` (stereo not drawn) [Example 3], the IC50 is below 20 nM.

On to `COC(=O)C1=C(C)N(c2cccc(C(F)(F)F)c2)c2nn(Cc3ccccc3)c(=O)n2C1c1ccc(C#N)cc1` (stereo not drawn) [Example 4, 2-Benzyl-5-(4-cyanophenyl)-7-methyl-3-oxo-8-(3-trifluoromethyl-phenyl)-2,3,5,8-tetrahydro-[1,2,4]triazolo[4,3-a]pyrimidine-6-carboxylic acid methyl ester], for which the IC50 was in the range of 20 to 100 nM.

`C=CCn1nc2n(c1=O)C(c1ccc(C#N)cc1)C(C(=O)OC)=C(C)N2c1cccc(C(F)(F)F)c1` (stereo not drawn) [Example 5, 2-Allyl-5-(4-cyanophenyl)-7-methyl-3-oxo-8-(3-trifluoromethyl-phenyl)-2,3,5,8-tetrahydro-[1,2,4]triazolo[4,3-a]pyrimidine-6-carboxylic acid methyl ester]: the concentration for half-maximal inhibition (IC50) is below 20 nM.

Take `COC(=O)C1=C(C)N(c2cccc(C(F)(F)F)c2)c2nn(C)c(=O)n2C1c1ccc(C#N)cc1` (stereo not drawn) [Example 6, 5-(4-Cyanophenyl)-2,7-dimethyl-3-oxo-8-(3-trifluoromethylphenyl)-2,3,5,8-tetrahydro-[1,2,4]triazolo[4,3-a]pyrimidine-6-carboxylic acid methyl ester]: the IC50 was below 20 nM.

For `CC1=C(C(=O)O)C(c2ccc(C#N)cc2)n2c(n[nH]c2=O)N1c1cccc(C(F)(F)F)c1` (stereo not drawn) [Example 9, 5-(4-Cyano-phenyl)-7-methyl-3-oxo-8-(3-trifluoromethyl-phenyl)-2,3,5,8-tetrahydro-[1,2,4]triazolo[4,3-a]pyrimidine-6-carboxylic acid], the IC50 is below 20 nM.

With `CC1=C(C(=O)OCCN(C)C)C(c2ccc(C#N)cc2)n2c(n[nH]c2=O)N1c1cccc(C(F)(F)F)c1` (stereo not drawn) [Example 10, 5-(4-Cyano-phenyl)-7-methyl-3-oxo-8-(3-trifluoromethyl-phenyl)-2,3,5,8-tetrahydro-[1,2,4]triazolo[4,3-a]pyrimidine-6-carboxylic acid 2-dimethylamino-ethyl ester], the half-maximal inhibitory concentration (IC50) is below 20 nM.

In the case of `CC1=C(C(=O)OCCCN(C)C)C(c2ccc(C#N)cc2)n2c(n[nH]c2=O)N1c1cccc(C(F)(F)F)c1` (stereo not drawn) [Example 11, 5-(4-Cyano-phenyl)-7-methyl-3-oxo-8-(3-trifluoromethyl-phenyl)-2,3,5,8-tetrahydro-[1,2,4]triazolo[4,3-a]pyrimidine-6-carboxylic acid 3-dimethylamino-propyl ester], the IC50 is below 20 nM.

For `CCNC(=O)C1=C(C)N(c2cccc(C(F)(F)F)c2)c2n[nH]c(=O)n2C1c1ccc(C#N)cc1` (stereo not drawn) [Example 12, 5-(4-Cyano-phenyl)-7-methyl-3-oxo-8-(3-trifluoromethyl-phenyl)-2,3,5,8-tetrahydro-[1,2,4]triazolo[4,3-a]pyrimidine-6-carboxylic acid ethylamide], the half-maximal inhibitory concentration (IC50) lay within 20 to 100 nM.

As to `COC(=O)C1=C(C)N(c2cccc(C(F)(F)F)c2)c2n[nH]c(=O)n2C1c1ccc(C#N)cc1S(C)(=O)=O` (stereo not drawn) [Example 13, 5-(4-Cyano-2-methanesulfonyl-phenyl)-7-methyl-3-oxo-8-(3-trifluoromethyl-phenyl)-2,3,5,8-tetrahydro-[1,2,4]triazolo[4,3-a]pyrimidine-6-carboxylic acid methyl ester], the IC50 is below 20 nM.

Consider `CC1=C(C#N)C(c2ccc(C#N)cc2)n2c(n[nH]c2=O)N1c1cccc(C(F)(F)F)c1` (stereo not drawn) [Example 14, 5-(4-Cyano-phenyl)-7-methyl-3-oxo-8-(3-trifluoromethyl-phenyl)-2,3,5,8-tetrahydro-[1,2,4]triazolo[4,3-a]pyrimidine-6-carbonitrile], for which the IC50 was below 20 nM.

For the molecule `COC(=O)C1=C(C)N(c2cccc(C(F)(F)F)c2)c2nn(-c3ccc(S(C)(=O)=O)cc3)c(=O)n2C1c1ccc(C#N)cc1` (stereo not drawn) [Example 15, 5-(4-Cyano-phenyl)-2-(4-methanesulfonyl-phenyl)-7-methyl-3-oxo-8-(3-trifluoromethyl-phenyl)-2,3,5,8-tetrahydro-[1,2,4]triazolo[4,3-a]pyrimidine-6-carboxylic acid methyl ester], the IC50 is below 20 nM.

As to `COC(=O)C1=C(C)N(c2cccc(C(F)(F)F)c2)c2nn(CCCS(C)(=O)=O)c(=O)n2C1c1ccc(C#N)cc1` (stereo not drawn) [Example 16, 5-(4-Cyano-phenyl)-2-(3-methanesulfonyl-propyl)-7-methyl-3-oxo-8-(3-trifluoromethyl-phenyl)-2,3,5,8-tetrahydro-[1,2,4]triazolo[4,3-a]pyrimidine-6-carboxylic acid methyl ester], the IC50 is below 20 nM.

With `COC(=O)C1=C(C)N(c2cccc(C(F)(F)F)c2)c2nn(Cc3ccc(S(C)(=O)=O)cc3)c(=O)n2[C@@H]1c1ccc(C#N)cc1` [Example 17, (R)-5-(4-Cyano-phenyl)-2-(4-methanesulfonyl-benzyl)-7-methyl-3-oxo-8-(3-trifluoromethyl-phenyl)-2,3,5,8-tetrahydro-[1,2,4]triazolo[4,3-a]pyrimidine-6-carboxylic acid methyl ester], the IC50 is below 20 nM.

Take `COC(=O)C1=C(C)N(c2cccc(C(F)(F)F)c2)c2nn(CCCS(C)(=O)=O)c(=O)n2[C@@H]1c1ccc(C#N)cc1` [Example 18, (R)-5-(4-Cyano-phenyl)-2-(3-methanesulfonyl-propyl)-7-methyl-3-oxo-8-(3-trifluoromethyl-phenyl)-2,3,5,8-tetrahydro-[1,2,4]triazolo[4,3-a]pyrimidine-6-carboxylic acid methyl ester]: the IC50 is below 20 nM.

Consider `COC(=O)C1=C(C)N(c2cccc(C(F)(F)F)c2)c2nn(S(=O)(=O)c3ccc(CN(C)CCN(C)C)cc3)c(=O)n2C1c1ccc(C#N)cc1` (stereo not drawn) [Example 19, 5-(4-Cyano-phenyl)-2-(4-{[(2-dimethylamino-ethyl)-methyl-amino]-methyl}-benzenesulfonyl)-7-methyl-3-oxo-8-(3-trifluoromethyl-phenyl)-2,3,5,8-tetrahydro-[1,2,4]triazolo[4,3-a]pyrimidine-6-carboxylic acid methyl ester], for which the half-inhibitory concentration (IC50) fell in the range of 20 to 100 nM.

As for `COC(=O)C1=C(C)N(c2cccc(C(F)(F)F)c2)c2nn(CCc3ccc(S(C)(=O)=O)cc3)c(=O)n2[C@@H]1c1ccc(C#N)cc1` [Example 20, (R)-5-(4-Cyano-phenyl)-2-[2-(4-methanesulfonyl-phenyl)-ethyl]-7-methyl-3-oxo-8-(3-trifluoromethyl-phenyl)-2,3,5,8-tetrahydro-[1,2,4]triazolo[4,3-a]pyrimidine-6-carboxylic acid methyl ester], the IC50 was below 20 nM.
